The text below walks through data of paper PMC9798004 (Frontiers in Psychiatry, 2022).

Test [1] deals with T1, GPR109B (Homo sapiens, UniProt P49019).
T1 construct: purchased Eurofins DiscoverX (PathHunter gpcrMAX)
Kind of test: PathHunter β-arrestin assay. The test is classed as cell-based. The settings on record: screen, control agonist; CHO, 37C, 2HR.

The target of test [2] is T2, EBI2 (Homo sapiens, UniProt P32249).
T2 construct: purchased Eurofins DiscoverX (PathHunter gpcrMAX)
Kind of test: PathHunter β-arrestin assay. The test is classed as cell-based. The settings on record: screen, control agonist; CHO, RT, 2HR.

Test [3] addresses DRD2S (Homo sapiens, UniProt P14416). Particulars: screen, control agonist; CHO, RT, 2HR.
Test [4] addresses DRD2L (Homo sapiens, UniProt P14416). Kind of test: PathHunter β-arrestin assay. The test is classed as cell-based. Particulars: control agonist.
The target in test [5] is T3, GPR120 (Homo sapiens, UniProt Q5NUL3).
T3 construct: purchased Eurofins DiscoverX (PathHunter gpcrMAX)
Kind of test: PathHunter β-arrestin assay. The test is classed as cell-based. Particulars: screen, control agonist; CHO, 37C, 2HR.

The target in test [6] is T4, FFAR1 (Homo sapiens, UniProt O14842).
T4 construct: purchased Eurofins DiscoverX (PathHunter gpcrMAX)
Kind of test: PathHunter β-arrestin assay. It is filed as cell-based. Particulars: screen, control agonist; DLD1, 37C, 4HR.

Test [7] has as its target T5, EDG7 (Homo sapiens, UniProt Q9UBY5).
T5 construct: purchased Eurofins DiscoverX (PathHunter gpcrMAX)
Put plainly: PathHunter β-arrestin assay. The settings on record: screen, control agonist; CHO, RT, 3HR. The test is classed as cell-based.

In test [8] the target is T6, GPR92 (Homo sapiens, UniProt Q9H1C0).
T6 construct: purchased Eurofins DiscoverX (PathHunter gpcrMAX)
Put plainly: PathHunter β-arrestin assay. The settings on record: screen, control agonist; CHO, RT, 3HR. It is filed as cell-based.

In test [9] the target is T7, EDG4 (Homo sapiens, UniProt Q9HBW0).
T7 construct: purchased Eurofins DiscoverX (PathHunter gpcrMAX)
Kind of test: PathHunter β-arrestin assay. The test is classed as cell-based. The settings on record: screen, control agonist; CHO, RT, 3HR.

Test [10] has as its target T8, ADRA1B (Homo sapiens, UniProt P35368).
T8 construct: purchased Eurofins DiscoverX (PathHunter gpcrMAX)
Put plainly: PathHunter β-arrestin assay. The settings on record: screen, control agonist; CHO, 37C, 2HR. The test is classed as cell-based.

Test [11] has as its target T9, EDG5 (Homo sapiens, UniProt O95136).
T9 construct: purchased Eurofins DiscoverX (PathHunter gpcrMAX)
Kind of test: PathHunter β-arrestin assay. The test is classed as cell-based. The settings on record: screen, control agonist; CHO, 37C, 2HR.

The target in test [12] is T10, EDG1 (Homo sapiens, UniProt P21453).
T10 construct: purchased Eurofins DiscoverX (PathHunter gpcrMAX)
Put plainly: PathHunter β-arrestin assay. It is filed as cell-based. The settings on record: screen, control agonist; CHO, 37C, 2HR.

The target of test [13] is T11, EDG6 (Homo sapiens, UniProt O95977).
T11 construct: purchased Eurofins DiscoverX (PathHunter gpcrMAX)
Put plainly: PathHunter β-arrestin assay. It is filed as cell-based. The settings on record: screen, control agonist; CHO, 37C, 4HR.

For test [14], the target named is T12, EDG3 (Homo sapiens, UniProt Q99500).
T12 construct: purchased Eurofins DiscoverX (PathHunter gpcrMAX)
Put plainly: PathHunter β-arrestin assay. The test is classed as cell-based. The settings on record: screen, control agonist; CHO, 37C, 2HR.

The target of test [15] is T13, CXCR3 (Homo sapiens, UniProt P49682).
T13 construct: purchased Eurofins DiscoverX (PathHunter gpcrMAX)
T13 sequence (P49682 1-368): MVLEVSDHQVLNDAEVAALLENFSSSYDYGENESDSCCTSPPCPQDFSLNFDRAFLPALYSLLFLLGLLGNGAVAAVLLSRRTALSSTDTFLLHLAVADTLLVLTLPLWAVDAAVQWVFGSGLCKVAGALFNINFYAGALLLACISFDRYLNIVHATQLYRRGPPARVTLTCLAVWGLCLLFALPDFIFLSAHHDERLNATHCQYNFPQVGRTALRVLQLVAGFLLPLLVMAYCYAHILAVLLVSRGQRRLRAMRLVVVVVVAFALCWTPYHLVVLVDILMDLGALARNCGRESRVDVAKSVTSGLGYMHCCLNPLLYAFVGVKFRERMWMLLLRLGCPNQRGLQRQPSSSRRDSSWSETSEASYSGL
Put plainly: PathHunter β-arrestin assay. Particulars: screen, control agonist; CHO, 37C, 2HR. The test is classed as cell-based.

The target in test [16] is T14, CXCR4 (Homo sapiens, UniProt P61073).
T14 construct: purchased Eurofins DiscoverX (PathHunter gpcrMAX)
Kind of test: PathHunter β-arrestin assay. It is filed as cell-based. The settings on record: screen, control agonist; C2C12, 37C, 2HR.

Test [17] has as its target T15, CXCR5 (Homo sapiens, UniProt P32302).
T15 construct: purchased Eurofins DiscoverX (PathHunter gpcrMAX)
T15 sequence (P32302 1-372): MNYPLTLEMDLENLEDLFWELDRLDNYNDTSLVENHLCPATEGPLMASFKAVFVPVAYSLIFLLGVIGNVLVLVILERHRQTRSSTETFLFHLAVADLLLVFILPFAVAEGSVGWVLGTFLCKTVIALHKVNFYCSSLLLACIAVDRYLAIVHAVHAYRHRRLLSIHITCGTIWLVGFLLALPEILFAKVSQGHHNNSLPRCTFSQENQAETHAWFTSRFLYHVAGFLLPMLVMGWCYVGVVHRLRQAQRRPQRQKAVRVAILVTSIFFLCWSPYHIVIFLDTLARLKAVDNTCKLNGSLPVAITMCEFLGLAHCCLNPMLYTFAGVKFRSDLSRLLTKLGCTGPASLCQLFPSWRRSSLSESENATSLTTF
Put plainly: PathHunter β-arrestin assay. The test is classed as cell-based. Particulars: screen, control agonist; CHO, 37C, 2HR.

The target of test [18] is T16, GPR1 (Homo sapiens, UniProt P46091).
T16 construct: purchased Eurofins DiscoverX (PathHunter gpcrMAX)
T16 sequence (P46091 1-355): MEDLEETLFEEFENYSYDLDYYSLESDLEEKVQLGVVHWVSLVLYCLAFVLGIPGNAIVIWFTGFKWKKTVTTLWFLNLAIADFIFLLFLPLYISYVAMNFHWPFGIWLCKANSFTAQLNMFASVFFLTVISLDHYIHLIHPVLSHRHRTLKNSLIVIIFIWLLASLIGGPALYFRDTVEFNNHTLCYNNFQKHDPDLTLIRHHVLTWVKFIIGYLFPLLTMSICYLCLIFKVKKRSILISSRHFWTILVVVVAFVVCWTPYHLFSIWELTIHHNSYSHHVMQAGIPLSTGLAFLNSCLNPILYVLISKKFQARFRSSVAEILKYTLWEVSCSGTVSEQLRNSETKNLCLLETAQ
Kind of test: PathHunter β-arrestin assay. It is filed as cell-based. The settings on record: screen, control agonist; CHO, 37C, 2HR.

The target of test [19] is T17, GPR103 (Homo sapiens, UniProt Q96P65).
T17 construct: purchased Eurofins DiscoverX (PathHunter gpcrMAX)
T17 sequence (Q96P65 1-431): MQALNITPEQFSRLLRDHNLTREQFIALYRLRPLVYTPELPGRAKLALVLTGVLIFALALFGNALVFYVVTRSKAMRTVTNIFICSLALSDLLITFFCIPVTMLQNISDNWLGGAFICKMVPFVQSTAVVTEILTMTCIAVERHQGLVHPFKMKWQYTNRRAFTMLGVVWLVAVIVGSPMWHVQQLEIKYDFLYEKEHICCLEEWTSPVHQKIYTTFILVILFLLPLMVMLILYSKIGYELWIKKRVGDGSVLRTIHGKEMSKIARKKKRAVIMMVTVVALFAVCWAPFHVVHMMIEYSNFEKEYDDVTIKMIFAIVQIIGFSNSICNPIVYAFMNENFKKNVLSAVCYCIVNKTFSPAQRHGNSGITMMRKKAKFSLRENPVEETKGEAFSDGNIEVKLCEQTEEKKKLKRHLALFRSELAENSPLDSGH
Kind of test: PathHunter β-arrestin assay. The test is classed as cell-based. Particulars: screen, control agonist; CHO, RT, 2HR.

The target of test [20] is T18, FPR1 (Homo sapiens, UniProt P21462).
T18 sequence (P21462 1-350): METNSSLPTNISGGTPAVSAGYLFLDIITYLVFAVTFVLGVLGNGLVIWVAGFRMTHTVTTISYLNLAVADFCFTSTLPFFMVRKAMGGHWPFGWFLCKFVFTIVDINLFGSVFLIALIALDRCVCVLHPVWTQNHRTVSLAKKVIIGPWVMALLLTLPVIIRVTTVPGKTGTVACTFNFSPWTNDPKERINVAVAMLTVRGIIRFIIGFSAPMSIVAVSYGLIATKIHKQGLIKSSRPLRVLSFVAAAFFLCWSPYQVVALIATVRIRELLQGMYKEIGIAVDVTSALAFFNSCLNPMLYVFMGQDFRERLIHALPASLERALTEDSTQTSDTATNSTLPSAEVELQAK
Put plainly: PathHunter β-arrestin assay. The test is classed as cell-based. The settings on record: control agonist.

In test [21] the target is T19, FPRL1 (Homo sapiens, UniProt P25090).
T19 construct: purchased Eurofins DiscoverX (PathHunter gpcrMAX)
Put plainly: PathHunter β-arrestin assay. The settings on record: screen, control agonist; CHO, 37C, 2HR. It is filed as cell-based.

The target in test [22] is T20, CXCR6 (Homo sapiens, UniProt O00574).
T20 construct: purchased Eurofins DiscoverX (PathHunter gpcrMAX)
Kind of test: PathHunter β-arrestin assay. The test is classed as cell-based. The settings on record: screen, control agonist; HEK, 37C, 2HR.

Where [23] appears, read: follow-up concentration-response assays.

Chain of DRD2L (P14416 whole entry): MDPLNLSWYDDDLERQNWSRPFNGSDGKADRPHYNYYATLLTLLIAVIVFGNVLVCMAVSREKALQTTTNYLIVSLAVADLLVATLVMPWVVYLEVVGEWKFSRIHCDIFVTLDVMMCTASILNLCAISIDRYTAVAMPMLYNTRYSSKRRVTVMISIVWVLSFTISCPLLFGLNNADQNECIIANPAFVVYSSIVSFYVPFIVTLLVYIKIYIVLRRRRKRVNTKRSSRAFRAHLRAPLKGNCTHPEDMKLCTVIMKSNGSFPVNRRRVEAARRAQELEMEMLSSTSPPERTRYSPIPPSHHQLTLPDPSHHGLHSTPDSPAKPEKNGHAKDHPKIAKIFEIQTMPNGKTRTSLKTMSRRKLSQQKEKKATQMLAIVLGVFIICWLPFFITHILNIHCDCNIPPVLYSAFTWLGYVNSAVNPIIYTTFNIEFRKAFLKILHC
T1 sequence (P49019 whole entry): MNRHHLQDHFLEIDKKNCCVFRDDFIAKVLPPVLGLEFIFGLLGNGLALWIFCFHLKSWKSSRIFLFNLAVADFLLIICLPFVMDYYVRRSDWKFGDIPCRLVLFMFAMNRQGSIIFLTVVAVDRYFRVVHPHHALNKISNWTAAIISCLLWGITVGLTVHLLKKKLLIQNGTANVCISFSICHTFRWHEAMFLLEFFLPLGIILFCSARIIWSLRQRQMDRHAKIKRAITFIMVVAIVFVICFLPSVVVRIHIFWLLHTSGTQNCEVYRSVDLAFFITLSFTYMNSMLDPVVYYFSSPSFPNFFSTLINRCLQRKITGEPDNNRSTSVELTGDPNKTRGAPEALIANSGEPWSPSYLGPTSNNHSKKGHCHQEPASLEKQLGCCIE
T12 sequence (Q99500 whole entry): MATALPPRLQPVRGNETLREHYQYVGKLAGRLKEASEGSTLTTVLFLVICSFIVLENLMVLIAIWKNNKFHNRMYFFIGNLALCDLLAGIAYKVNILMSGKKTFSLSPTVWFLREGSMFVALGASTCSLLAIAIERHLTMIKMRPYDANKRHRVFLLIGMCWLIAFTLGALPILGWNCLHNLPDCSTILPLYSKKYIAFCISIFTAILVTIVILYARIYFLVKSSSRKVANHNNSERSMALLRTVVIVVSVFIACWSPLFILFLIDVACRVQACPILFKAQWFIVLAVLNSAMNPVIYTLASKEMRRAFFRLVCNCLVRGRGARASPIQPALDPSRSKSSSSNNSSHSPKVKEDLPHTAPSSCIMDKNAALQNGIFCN
T3 sequence (Q5NUL3 whole entry): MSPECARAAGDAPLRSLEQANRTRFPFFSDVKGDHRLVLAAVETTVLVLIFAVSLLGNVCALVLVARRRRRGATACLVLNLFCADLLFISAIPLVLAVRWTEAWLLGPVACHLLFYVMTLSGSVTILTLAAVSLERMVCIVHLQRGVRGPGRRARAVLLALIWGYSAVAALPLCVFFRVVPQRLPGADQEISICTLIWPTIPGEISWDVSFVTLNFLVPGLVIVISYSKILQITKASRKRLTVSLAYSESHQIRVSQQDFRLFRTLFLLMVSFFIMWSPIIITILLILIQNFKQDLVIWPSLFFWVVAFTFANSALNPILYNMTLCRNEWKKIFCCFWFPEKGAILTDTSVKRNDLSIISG
T2 sequence (P32249 whole entry): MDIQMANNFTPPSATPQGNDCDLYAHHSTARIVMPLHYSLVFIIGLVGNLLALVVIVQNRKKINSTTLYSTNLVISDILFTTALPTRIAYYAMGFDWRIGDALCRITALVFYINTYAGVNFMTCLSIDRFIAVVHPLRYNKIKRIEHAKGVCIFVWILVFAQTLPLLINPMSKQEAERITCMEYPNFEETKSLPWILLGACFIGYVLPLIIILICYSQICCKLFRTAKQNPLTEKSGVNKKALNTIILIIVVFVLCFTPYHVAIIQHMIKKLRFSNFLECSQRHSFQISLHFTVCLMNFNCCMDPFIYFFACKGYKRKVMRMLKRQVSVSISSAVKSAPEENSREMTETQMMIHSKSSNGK
T5 sequence (Q9UBY5 whole entry): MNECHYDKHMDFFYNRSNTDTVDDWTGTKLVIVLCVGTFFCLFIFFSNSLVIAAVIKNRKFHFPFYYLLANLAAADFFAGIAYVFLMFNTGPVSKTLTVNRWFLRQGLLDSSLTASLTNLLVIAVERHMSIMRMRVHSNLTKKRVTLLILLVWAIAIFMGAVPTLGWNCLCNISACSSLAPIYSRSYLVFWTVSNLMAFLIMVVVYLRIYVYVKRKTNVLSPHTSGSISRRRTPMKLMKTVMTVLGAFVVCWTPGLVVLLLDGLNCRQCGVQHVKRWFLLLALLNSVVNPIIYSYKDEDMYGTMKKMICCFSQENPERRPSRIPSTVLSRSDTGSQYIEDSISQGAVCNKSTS
T4 sequence (O14842 whole entry): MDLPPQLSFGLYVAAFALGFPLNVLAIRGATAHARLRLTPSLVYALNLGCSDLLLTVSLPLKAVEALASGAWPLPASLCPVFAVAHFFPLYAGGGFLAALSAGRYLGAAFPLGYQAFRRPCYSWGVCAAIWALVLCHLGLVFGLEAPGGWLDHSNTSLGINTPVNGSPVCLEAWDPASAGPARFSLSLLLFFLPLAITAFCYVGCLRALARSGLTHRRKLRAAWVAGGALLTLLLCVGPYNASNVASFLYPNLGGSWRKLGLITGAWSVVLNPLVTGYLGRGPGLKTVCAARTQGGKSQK
T10 sequence (P21453 whole entry): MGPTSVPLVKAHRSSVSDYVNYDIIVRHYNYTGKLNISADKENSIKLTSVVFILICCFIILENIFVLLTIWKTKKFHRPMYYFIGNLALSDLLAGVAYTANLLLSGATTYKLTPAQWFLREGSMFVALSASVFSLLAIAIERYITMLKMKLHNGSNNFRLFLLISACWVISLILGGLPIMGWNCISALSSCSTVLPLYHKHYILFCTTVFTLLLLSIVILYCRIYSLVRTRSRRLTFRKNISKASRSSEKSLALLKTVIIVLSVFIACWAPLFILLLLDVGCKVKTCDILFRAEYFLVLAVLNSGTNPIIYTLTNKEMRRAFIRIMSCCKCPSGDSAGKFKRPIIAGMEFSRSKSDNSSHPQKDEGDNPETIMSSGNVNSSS
Chain of DRD2S (P14416 1-414 isoform P14416-2): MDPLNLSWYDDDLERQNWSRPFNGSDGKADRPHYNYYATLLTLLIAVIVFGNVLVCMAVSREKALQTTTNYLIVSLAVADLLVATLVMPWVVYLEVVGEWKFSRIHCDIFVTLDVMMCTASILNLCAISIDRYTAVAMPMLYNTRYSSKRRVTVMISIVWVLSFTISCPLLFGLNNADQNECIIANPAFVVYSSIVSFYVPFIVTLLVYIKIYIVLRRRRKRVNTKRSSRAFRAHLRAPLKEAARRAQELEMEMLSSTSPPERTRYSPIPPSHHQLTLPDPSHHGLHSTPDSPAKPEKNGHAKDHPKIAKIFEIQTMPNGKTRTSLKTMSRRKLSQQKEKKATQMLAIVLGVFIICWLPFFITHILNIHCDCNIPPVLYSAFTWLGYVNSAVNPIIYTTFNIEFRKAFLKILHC
T8 sequence (P35368 whole entry): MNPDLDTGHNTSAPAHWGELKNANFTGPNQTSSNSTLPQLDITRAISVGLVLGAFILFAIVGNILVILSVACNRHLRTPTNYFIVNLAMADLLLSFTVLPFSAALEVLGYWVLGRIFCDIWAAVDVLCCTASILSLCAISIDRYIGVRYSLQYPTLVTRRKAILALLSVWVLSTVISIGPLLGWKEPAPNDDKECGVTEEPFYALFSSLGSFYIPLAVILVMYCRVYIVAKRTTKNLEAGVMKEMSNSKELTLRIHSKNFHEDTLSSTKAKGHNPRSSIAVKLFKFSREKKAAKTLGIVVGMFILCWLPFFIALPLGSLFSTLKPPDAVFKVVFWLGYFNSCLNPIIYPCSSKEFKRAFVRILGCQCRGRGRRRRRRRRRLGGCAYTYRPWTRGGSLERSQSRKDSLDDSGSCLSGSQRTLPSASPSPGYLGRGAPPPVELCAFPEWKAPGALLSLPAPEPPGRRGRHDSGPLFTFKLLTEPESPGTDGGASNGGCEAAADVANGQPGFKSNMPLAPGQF
T14 sequence (P61073 whole entry): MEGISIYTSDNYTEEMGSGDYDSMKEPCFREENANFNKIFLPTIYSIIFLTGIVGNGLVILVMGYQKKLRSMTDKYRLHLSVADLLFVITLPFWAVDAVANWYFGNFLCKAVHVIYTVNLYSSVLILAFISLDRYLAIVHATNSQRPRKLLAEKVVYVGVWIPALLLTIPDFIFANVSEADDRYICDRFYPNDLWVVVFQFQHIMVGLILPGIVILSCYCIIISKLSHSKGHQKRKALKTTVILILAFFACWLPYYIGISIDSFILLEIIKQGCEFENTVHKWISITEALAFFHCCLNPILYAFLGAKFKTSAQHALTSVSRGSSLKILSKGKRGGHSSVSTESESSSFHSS
T19 sequence (P25090 whole entry): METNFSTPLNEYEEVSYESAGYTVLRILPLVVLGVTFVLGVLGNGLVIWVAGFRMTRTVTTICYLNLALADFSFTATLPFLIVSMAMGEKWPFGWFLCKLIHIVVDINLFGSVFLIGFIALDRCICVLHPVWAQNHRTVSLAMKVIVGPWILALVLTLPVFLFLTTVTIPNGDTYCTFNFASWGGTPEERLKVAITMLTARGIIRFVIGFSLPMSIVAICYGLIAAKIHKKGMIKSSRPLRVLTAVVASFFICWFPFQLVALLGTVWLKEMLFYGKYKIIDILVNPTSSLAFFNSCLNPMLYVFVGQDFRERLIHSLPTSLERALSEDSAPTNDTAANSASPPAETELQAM

In test [1], `CCCCCC(O)CC(=O)O` (stereo not drawn) [3-Hydroxyoctanoic Acid] gave an EC80 of 904000 nM.
As to `C[C@H](CCCC(C)(C)O)[C@H]1CC[C@H]2[C@@H]3[C@H](O)C=C4C[C@@H](O)CC[C@]4(C)[C@H]3CC[C@]12C` [7a,25-Dihydroxycholesterol], the EC80 in test [2] turned out to be 23.3 nM.
Take `NCCc1ccc(O)c(O)c1` [Dopamine]: the EC80 was found to be 300 nM in test [3]; 200 nM in [4] (setting [23]); 100 nM in [4] (screen, CHO, 37C, 2HR).
Regarding `O=C(O)CCc1ccc(NCc2cccc(Oc3ccccc3)c2)cc1` [GW9508], the EC80 in test [5] came out at 21500 nM; in test [6], 402 nM.
With `CCCCCCCC/C=C\CCCCCCCC(=O)OC[C@@H](O)COP(=O)(O)O` [Oleoyl LPA], the EC80 in test [7] stood at 3480 nM; in test [8] it was 4280 nM; in test [9] it was 1960 nM.
As for `CNC[C@H](O)c1cccc(O)c1` [Phenylephrine], in test [10], the EC80 is 133 nM.
For the molecule `CCCCCCCCCCCCC/C=C/[C@@H](O)[C@@H](N)COP(=O)(O)O` [S-1-P], the EC80 in test [11] amounted to 119 nM; in test [12] it was 117 nM; in [13], 180 nM; in [14] it was 194 nM.
For the molecule CXCL11: control agonist, the EC80 in test [15] amounted to 17.9 nM.
CXCL12: control agonist returned an EC80 in [16] of 5.15 nM.
Molecule CXCL13: control agonist yielded an EC80 in test [17] of 61.3 nM.
Turning to Chemerin: control agonist, the EC80 in [18] came out at 4.61 nM.
The molecule QRFP-26 showed an EC80 in test [19] of 14.2 nM.
Turning to WKYMVm-NH2, the EC80 in test [20] (setting [23]) came to 8.52 nM; in [20] (screen, CHO, 37C, 2HR), 8.52 nM; in [21] it was 3.91 nM.

B1: CXCL16: control agonist (protein, UniProt Q9H2A7 30-254, looked up)
C-X-C motif chemokine 16: NEGSVTGSCYCGKRISSDSPPSVQFMNRLRKHLRAYHRCLYYTRFQLLSWSVCGGNKDPWVQELMSCLDLKECGHAYSGIVAHQKHLLPTSPPISQASEGASSDIHTPAQMLLSTLQSTQRPTLPVGSLSSDKELTRPNETTIHTAGHSLAAGPEAGENQKQPEKNAGPTARTSATVPVLCLLAIIFILTAALSYVLCKRRRGQSPQSSPDLPVHYIPVAPDSNT
For the molecule B1, the EC80 in [22] was determined as 1.39 nM.
